Assays:
[1] = system: AKT phosphorylation; test: Western AKT cell-based phosphorylation assay, PANC-1; settings: Homo sapiens
Procedure: Human tumor-derived pancreatic cancer cell line Panc-1 was purchased from American Type Culture Collection and grown in complete DMEM-High Glucose supplemented with penicillin (100 U/mL), streptomycin (100 μg/mL), and 10% heat-inactivated FBS at 37° C. in a humidified incubator with 5% CO2.
(§1) Method: Cells were plated at 350000 cells/well density in a 12-well plate, allowed 3 hours to adhere to the plate, then starved in the appropriate medium in the presence of 0.5% FBS overnight. The small molecules to be tested were added to the cells in the final concentration of 10 μM in the presence of 0.3% DMSO for 6 hours incubation at 37° C. Next, cells were stimulated with 1.5 ng/ml EGF for 15 minutes then cells were lysed with lysis buffer containing 1% Triton X-100, EDTA, and Halt™ Protease & Phosphatase Inhibitor Cocktail (Thermo Scientific). Protein concentration was assessed by BCA protein assay (Thermo Scientific). Phosphorylation level of Akt was determined by western blot.
(§2) Western blot protocol: Equal amounts of protein (15-50 μg) were separated by SDS-PAGE and transferred to nitrocellulose membranes (Invitrogen by Thermo Fisher Scientific). The membrane was stained with Ponceau S Stain (Boston BioProducts) to verify uniform protein loading. Membranes were blocked with 10% milk and phosphorylation levels of Akt were assessed by incubating overnight at 4° C. with anti-phospho-Akt (Ser473) antibody (Cell Signaling) followed by HRP-conjugated secondary antibody (Jackson Immunoresearch, West Grove, PA). Bands were incubated in Amersham ECL Prime Western Blotting Detection Reagent (GE Healthcare) and visualized using the ChemiDoc MP imaging system (Bio-Rad).

[2] = system: MAPK phosphorylation; test: MAPK cell-based phosphorylation assay (ELISA or Western), PANC-1; settings: Homo sapiens, 10 μM
Procedure: Cell lines: Tumor-derived pancreatic cancer cell line PANC-1 was purchased from ATCC and were and grown in DMEM-High Glucose supplemented with penicillin (100 U/mL), streptomycin (100 μg/mL), and 10% heat-inactivated FBS at 37° C. in a humidified incubator with 5% CO2.
Method: Cells were plated at 7500 cells/well density in a 96-well plate, allowed 3 hours to adhere to the plate, then starved in DMEM plus 0.5% FBS overnight. The small molecules to be tested were added to the cells in the final concentration of 10 μM in the presence of 0.3% DMSO for 6 hours incubation at 37° C. For IC50 value determination, serial dilutions of compounds were added to cells under the same conditions. Next, cells were stimulated with 1.5 ng/mL EGF for 15 minutes followed by cell fixation with 4% formaldehyde in PBS at room temperature for 20 minutes. Cell-direct ELISA determined phosphorylation level of MAPK.
Cell-direct ELISA: For each well, cells were permeabilized with 0.1% PBS-Triton X-100, quenched with 0.06% H2O2 in 0.1% PBS-Triton X-100, and probed with anti-phospho-MAPK antibodies (R&D Systems) followed by HRP-conjugated secondary antibody (Jackson Immunoresearch, West Grove, PA). Next, a 50 μM solution of the fluorescent substrate AmpliFlu Red (Sigma) was added and incubated at RT for 20 minutes. At the end of the incubation time, phosphorylation level of MAPK was determined by measuring fluorescence at 595 nm using SpectraMax M3 plate reader (Molecular Devices).
Cell lines: Human NSCLC cells NCI-H1975 and NCI-H1299, and tumor-derived pancreatic cancer cell lines Panc-1, MIA-PaCa-2, and BxPC3, were all purchased from American Type Culture Collection and grown in complete RPMI medium (BxPC3, NCI-H1975 and NCI-H1299) or DMEM-High Glucose (Panc1 and MIA-PaCa-2), supplemented with penicillin (100 U/mL), streptomycin (100 μg/mL), and 10% heat-inactivated FBS at 37° C. in a humidified incubator with 5% CO2.
as §1, with “C. For IC50 value determination, serial dilutions of compounds were added to cells under the same conditions.” for “C.”, “MAPK” for “Akt”
as §2, with “MAPK” for “Akt”, “anti-phospho-p44/42 (Thr202/Tyr204)” for “anti-phospho-Akt (Ser473)”

[3] = 6 hours, EGF stimulation, PANC-1

For COc1cccc(-c2sc3nc(-c4nccn4C)nc(N[C@@H]4CC[C@H](OC)C4)c3c2-c2ccccc2)c1F [drawing 484], the inhibition at 10 µM ([1]; PANC-1 (Table 4C)) was 76 to 100% and the inhibition at 10 µM ([2]; PANC-1 (Table 4C)) was 76 to 100%.
CN(Cc1ccccc1)C(=O)c1nc(-c2ccccn2)nc(O)c1O [drawing 454] showed an inhibition at 10 µM [1, 3] of 0% and an inhibition at 10 µM [2, 3] of 0%.
COCCNC(=O)c1sc2nc(-c3nccn3C)nc(N[C@@H]3CC[C@H](OC)C3)c2c1-c1ccccc1 [drawing 525] was tested, and the inhibition at 10 µM ([1]; PANC-1 (Table 4C)) was 0% and the inhibition at 10 µM ([2]; PANC-1 (Table 4C)) was 0%.
CO[C@H]1C[C@@H](Nc2nc(-c3nccn3C)nc3sc(-c4cnn(C)c4)c(-c4ccccc4)c23)C1 [drawing 492] showed an inhibition at 10 µM ([1]; PANC-1 (Table 4C)) of 26 to 50% and an inhibition at 10 µM ([2]; PANC-1 (Table 4C)) of 76 to 100%.
With CO[C@H]1C[C@@H](Nc2nc(-c3ncc[nH]3)nc3sc(-c4ccn(C)n4)c(-c4ccccc4)c23)C1 [drawing 510] the inhibition at 10 µM ([1]; PANC-1 (Table 4C)) was 0% and the inhibition at 10 µM ([2]; PANC-1 (Table 4C)) was 0%.
COc1cccc(-c2sc3nc(-c4nccn4C)nc(NC4CCC(OC)C4)c3c2-c2ccccc2)c1F (centres unmarked) [drawing 483] was tested, and the inhibition at 10 µM ([1]; PANC-1 (Table 4C)) was 76 to 100% and the inhibition at 10 µM ([2]; PANC-1 (Table 4C)) was 76 to 100%.
Compound COCCN(C)C(=O)c1nc(-c2ccccn2)nc(O)c1O [drawing 460] has an inhibition at 10 µM [1, 3] of 0% and an inhibition at 10 µM [2, 3] of 0%.
For COCCNc1nc(-c2cn(C)cn2)nc2sc(-c3cc(OC)ccc3Cl)c(-c3ccc(OC)cc3)c12 [drawing 424], the inhibition at 10 µM [1, 3] was 76 to 100% and the inhibition at 10 µM [2, 3] was 76 to 100%.
Compound O=C(c1nc(-c2ccccn2)nc(O)c1O)N1CCc2ccccc2C1 [drawing 452] has an inhibition at 10 µM [1, 3] of 0% and an inhibition at 10 µM [2, 3] of 0%.
Work on COC1CCN(c2nc(-c3nccn3C)nc3sc(-c4ccncc4C)c(-c4ccccc4)c23)C1 (centres unmarked) [drawing 434] yielded an inhibition at 10 µM [1, 3] of 0% and an inhibition at 10 µM [2, 3] of 0%.
COCCCNc1nc(-c2nccn2C)nc2sc(-c3ccn(C)n3)c(-c3ccccc3)c12 [drawing 400] was tested, and the inhibition at 10 µM [1, 3] was 0% and the inhibition at 10 µM [2, 3] was 26 to 50%.
With CC(C)CNC(=O)c1nc(-c2ccccn2)nc(O)c1O [drawing 459] the inhibition at 10 µM [1, 3] was 0% and the inhibition at 10 µM [2, 3] was 0%.
COC1CCN(c2nc(-c3nccn3C)nc3sc(-c4ccccc4Cl)c(-c4cscn4)c23)C1 (centres unmarked) [drawing 415] showed an inhibition at 10 µM [1, 3] of 0% and an inhibition at 10 µM [2, 3] of 0%.
COc1ccc(-c2c(-c3cccc(OC)c3F)sc3nc(-c4nccn4C)nc(N4CCC(OC)C4)c23)cc1 (centres unmarked) [drawing 442] showed an inhibition at 10 µM [1, 3] of 0% and an inhibition at 10 µM [2, 3] of 0%.
With Cn1ccnc1-c1nc(O)c2scc(-c3ccccn3)c2n1 [drawing 387] the inhibition at 10 µM [1, 3] was 0% and the inhibition at 10 µM [2, 3] was 0%.
In the case of COc1ncccc1-c1sc2nc(-c3nccn3C)nc(N3CCC(OC)C3)c2c1-c1ccccc1 (centres unmarked) [drawing 431], the inhibition at 10 µM [1, 3] is reported as 0% and the inhibition at 10 µM [2, 3] is reported as 76 to 100%.
Work on CO[C@H]1CC[C@@H](Nc2nc(-c3nccn3C)nc3sc(C(=O)N4CCCC4)c(-c4ccccc4)c23)C1 [drawing 526] yielded an inhibition at 10 µM ([1]; PANC-1 (Table 4C)) of 0% and an inhibition at 10 µM ([2]; PANC-1 (Table 4C)) of 0%.
For COC1CCN(c2nc(-c3nccn3C)nc3sc(-c4ccnc(N(C)C)c4)c(-c4ccccc4)c23)C1 (centres unmarked) [drawing 440], the inhibition at 10 µM [1, 3] was 0% and the inhibition at 10 µM [2, 3] was 76 to 100%.
In the case of Cn1ccnc1-c1nc(O)c(O)c(C(=O)NC2CCC2)n1 [drawing 467], the inhibition at 10 µM [1, 3] is reported as 0% and the inhibition at 10 µM [2, 3] is reported as 0%.
In the case of Cc1c(-c2ccn(C)n2)sc2nc(-c3nccn3C)nc(NCCCS(C)(=O)=O)c12 [drawing 516], the inhibition at 10 µM ([1]; PANC-1 (Table 4C)) is reported as 0% and the inhibition at 10 µM ([2]; PANC-1 (Table 4C)) is reported as 0%.
In the case of COc1cccc(-c2sc3nc(C4=NC(C)=NC4C)nc(N[C@@H]4CC[C@H](OC)C4)c3c2C)c1F (some centres unmarked), the inhibition at 10 µM ([1]; PANC-1 (Table 4C)) is reported as 0% and the inhibition at 10 µM ([2]; PANC-1 (Table 4C)) is reported as 76 to 100%.
For COCCNc1nc(-c2cn(C)cn2)nc2sc(-c3cccc(OC)c3Cl)c(-c3ccc(OC)cc3)c12 [drawing 423], the inhibition at 10 µM [1, 3] was 0% and the inhibition at 10 µM [2, 3] was 76 to 100%.
Work on COc1nscc1-c1sc2nc(-c3nccn3C)nc(N3CCC(OC)C3)c2c1-c1ccccc1 (centres unmarked) [drawing 439] yielded an inhibition at 10 µM [1, 3] of 0% and an inhibition at 10 µM [2, 3] of 51 to 75%.
For COc1cccc(-c2sc3nc(-c4nccn4C)nc(N4CCC(OC)C4)c3c2-c2ccccc2)c1F (centres unmarked) [drawing 444], the inhibition at 10 µM [1, 3] was 76 to 100% and the inhibition at 10 µM [2, 3] was 76 to 100%.
For COCCCN(C)c1nc(-c2nccn2C)nc2sc(-c3ccn(C)n3)c(-c3ccccc3)c12 [drawing 401], the inhibition at 10 µM [1, 3] was 0% and the inhibition at 10 µM [2, 3] was 51 to 75%.
Cn1ccnc1-c1nc(O)c(O)c(C(=O)N2CCCCC2)n1 [drawing 466] gave an inhibition at 10 µM [1, 3] of 0% and an inhibition at 10 µM [2, 3] of 0%.
For COc1ccc(Oc2nc(-c3ccccn3)nc(O)c2OC)cc1 [drawing 449], the inhibition at 10 µM [1, 3] was 0% and the inhibition at 10 µM [2, 3] was 0%.
With Cn1ccnc1-c1nc(O)c(O)c(C(=O)NC2CCCC2)n1 [drawing 465] the inhibition at 10 µM [1, 3] was 0% and the inhibition at 10 µM [2, 3] was 0%.
COC1CCN(C(=O)c2sc3nc(-c4nccn4C)nc(N[C@H]4C[C@@H](OC)C4)c3c2-c2ccccc2)C1 (some centres unmarked) [drawing 523] showed an inhibition at 10 µM ([1]; PANC-1 (Table 4C)) of 0% and an inhibition at 10 µM ([2]; PANC-1 (Table 4C)) of 0%.
With COC1CCC(Nc2nc(-c3nccn3C)nc3sc(-c4cccc5[nH]ncc45)c(-c4ccccc4)c23)C1 (centres unmarked) [drawing 488] the inhibition at 10 µM ([1]; PANC-1 (Table 4C)) was 76 to 100% and the inhibition at 10 µM ([2]; PANC-1 (Table 4C)) was 76 to 100%.
In the case of COCCNC(=O)c1sc2nc(-c3nccn3C)nc(N[C@H]3C[C@@H](OC)C3)c2c1-c1ccccc1 [drawing 521], the inhibition at 10 µM ([1]; PANC-1 (Table 4C)) is reported as 0% and the inhibition at 10 µM ([2]; PANC-1 (Table 4C)) is reported as 0%.
Cn1ccc(-c2sc3nc(-c4nccn4C)nc(NCC4CCOC4)c3c2-c2ccccc2)n1 (centres unmarked) [drawing 405] gave an inhibition at 10 µM [1, 3] of 0% and an inhibition at 10 µM [2, 3] of 1 to 25%.
For COc1ccc(Cn2cnc(-c3nc(O)c4scc(-c5ccccn5)c4n3)c2)cc1 [drawing 399], the inhibition at 10 µM [1, 3] was 0% and the inhibition at 10 µM [2, 3] was 51 to 75%.
Work on COC1CCN(c2nc(-c3nccn3C)nc3sc(-c4ccnn4C)c(-c4ccccc4)c23)C1 (centres unmarked) [drawing 428] yielded an inhibition at 10 µM [1, 3] of 0% and an inhibition at 10 µM [2, 3] of 0%.
For COc1cccc(-c2csc3c(O)nc(-c4nccn4C)nc23)c1Cl [drawing 386], the inhibition at 10 µM [1, 3] was 0% and the inhibition at 10 µM [2, 3] was 26 to 50%.
Work on COC1CCN(c2nc(-c3nccn3C)nn3cc(-c4ccccc4)c(-c4ccccc4)c23)C1 (centres unmarked) [drawing 471] yielded an inhibition at 10 µM [1, 3] of 0% and an inhibition at 10 µM [2, 3] of 51 to 75%.
CC(C)COc1ccc(-c2csc3c(O)nc(-c4nccn4Cc4ccccn4)nc23)cn1 [drawing 499] gave an inhibition at 10 µM ([1]; PANC-1 (Table 4C)) of 0% and an inhibition at 10 µM ([2]; PANC-1 (Table 4C)) of 76 to 100%.
CCn1cc(Nc2nc(-c3ccccn3)nc(O)c2OC)cn1 [drawing 481] showed an inhibition at 10 µM ([1]; PANC-1 (Table 4C)) of 0% and an inhibition at 10 µM ([2]; PANC-1 (Table 4C)) of 0%.
Compound COc1cccc(-c2sc3nc(-c4nccn4C)nc(NC4CCC(OC)C4)c3c2C)c1F (centres unmarked) [drawing 493] has an inhibition at 10 µM ([1]; PANC-1 (Table 4C)) of 0% and an inhibition at 10 µM ([2]; PANC-1 (Table 4C)) of 76 to 100%.
For COC1CCN(c2nc(-c3nccn3C)nc3sc(-c4ccccc4CO)c(-c4ccccc4)c23)C1 (centres unmarked) [drawing 438], the inhibition at 10 µM [1, 3] was 0% and the inhibition at 10 µM [2, 3] was 0%.

— patent US20250296938A1, “Compounds that Interact with the Ras Superfamily for the Treatment of Cancers, Inflammatory Diseases, Rasopathies, and Fibrotic Disease” (SHY Therapeutics, LLC, priority 2018, published 2025)
